# Results reported in patent US20260159525A1, “TRICYCLIC HETEROCYCLES” (Merck Patent GmbH, priority 2021, published 2026).
# Experiments:
# Assay type in all cases: cell-based
# NCI-H226 cells = test: Viability assay in NCI-H226 (Yap-dependent) cells, CyQUANT; settings: Homo sapiens, NCI-H226 YAP dependent cell line, 96 hour incubation, group symbols
# Procedure: (§1) Viability Assay in NCI-H226 (Yap-Dependent) and SW620 Yap KO (Yap Independent) Cells
# (§2) The ability of YAP-TEAD inhibitors to inhibit tumor cell growth was evaluated using two different cell lines: NCI-H226, which is a YAP dependent cell line, and SW620 cells, where YAP and TAZ were knocked out using CRISPR to generate a YAP independent cell line.
# (§3) For the assay, cells were treated in duplicates with the test compounds in a 10-point dose, 1:3 dilution steps, with the top concentration starting at 30 μM (final concentration in assay). After a 96 hour incubation at 37° C., 95% rH, and 5% CO2, a cell-permeant DNA-binding dye that stains only healthy cells (CyQUANT®, Promega) was added to the cells, allowing the quantification of cell viability.
# (§4) Cell Media: The NCI-H226 cells were cultured in the following media: RPMI 1640, +10% FBS, +1× GlutaMAX, +10 mM HEPES, +0.5% Pen/Strep. The SW620-KO cells were cultured in the following media: DMEM/F-12, +10% FBS, +1× GlutaMAX, +10 mM HEPES, +0.5% Pen/Strep.
# (§5) Reagents: The reagents used are listed below:
# (§6) Cell culture: The cells were examined using an inverted microscope to check for health, cell density, etc. To dissociate adherent cells, the monolayer of cells was washed once with pre-warmed PBS. After removing the PBS, 3 ml pre-warmed Accutase was added to a F75 flask, dispersed evenly and the flask was allowed to sit in incubator for ˜4-5 minutes.
# (§7) When a single cell suspension was obtained, 7 ml of prewarmed growth media was added and resuspended with the cells. The cell suspension was transferred to a sterile 15 ml conical centrifuge tube, and spun for 5 min at 300×g, RT. The supernatant was discarded and the pellet was resuspended in 10 ml of pre-warmed growth media.
# (§8) The total cell count was determined, and 20 μl of the desired cell number was added to each well of a 384 well plate using a Multidrop Combi. The plates were then incubated for 24 hours at 37° C., 95% rH, and 5% CO2.
# (§9) Compound treatment: 24 hours after seeding, the cells were treated with compounds.
# (§10) A 1:333 dilution of compounds, diluted in DMSO, was made to get a final concentration of 0.3% DMSO per well. To transfer the compounds to the assay plate, 120 nl was shot from Labcyte low dead volume plates to the cell plates containing 20 μl media/well with the ECHO 555 liquid handling system. After treatment, the cells were fed with 20 μl fresh pre-warmed assay media using a Multidrop combi.
# (§11) The assay plates were then incubated for 96 h at 37° C., 95% rH, and 5% CO2.
# (§12) 96 h after treatment 30 μl of CyQuant® reagent was added to the assay plates using a Multidrop combi in the dark. The plates were then incubated for 1 hour at 37° C., 95% rH and 5% CO2. Thereafter, the assay plates were removed from the incubator and allowed to equilibrate to RT for 30 min in the dark without lid. Finally, they were measured using an EnVision microplate reader with a FITC bottom read program.
# SW620 Yap KO cells = test: Viability assay in SW620 Yap KO (Yap independent) cells, CyQUANT; settings: Homo sapiens, SW-620, SW620 YAP and TAZ knocked out (YAP independent), 96 hour incubation, n.d. (x) = not detectable below threshold x
# Procedure: as §1, §2, §3, §4, §5, §6, §7, §8, §9, §10, §11, §12
# YAP-TEAD interaction = test: SK-HEP-1 reporter assay (8x TEAD responsive elements driving NanoLuc luciferase); settings: Homo sapiens, SK-HEP1, SK-HEP-1 cells, 24 hour incubation
# Outline: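 SK-HEP-1 cells carrying a stably integrated 8× TEAD-element NanoLuc reporter, seeded 24 h before dosing, were treated in duplicate with a 10-point dose series (top 30 μM final, 0.3% DMSO) for 24 h at 37°C, 5% CO2. Luciferase activity read by NanoGlo luminescence; IC50 derived from it.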
# [1] = number, or n.d. (x) = not detectable below threshold x
Compound,IC50 (NCI-H226 cells) [nM],IC50 (SW620 Yap KO cells) [nM],IC50 (YAP-TEAD interaction; group symbols) [nM],IC50 (YAP-TEAD interaction; [1]) [nM]
"Cn1cc2c3cc(C(=O)NCc4ccncc4)sc3n(-c3ccc(C(F)(F)F)cc3)c2n1 [Compound 31, 4-methyl-N-[(pyridin-4-yl)methyl]-7-[4-(trifluoromethyl)phenyl]-9-thia-4,5,7-triazatricyclo[6.3.0.0^2,6]undeca-1(8),2,5,10-tetraene-10-carboxamide]",1 to 100,> 3200,> 10000,–
"CC[C@H](CO)NC(=O)c1cc2c3cn(C)nc3n(-c3ccc(C(F)(F)F)cc3)c2s1 [Compound 93, N-[(2R)-1-hydroxybutan-2-yl]-4-methyl-7-[4-(trifluoromethyl)phenyl]-9-thia-4,5,7-triazatricyclo[6.3.0.0^2,6]undeca-1(8),2,5,10-tetraene-10-carboxamide]",1 to 100,> 3000,10 to 100,–
"Cn1cc2c3cc(C(=O)N4CC[C@@H](O)C4)sc3n(-c3ccc(C(F)(F)F)cc3)c2n1 [Compound 67, (3R)-1-{4-methyl-7-[4-(trifluoromethyl)phenyl]-9-thia-4,5,7-triazatricyclo[6.3.0.0^2,6]undeca-1(8),2,5,10-tetraene-10-carbonyl}pyrrolidin-3-ol]",100 to 1000,> 3000,–,> 9500
"CC[C@@H](CO)NC(=O)c1cc2c3cn(C)nc3n(-c3ccc(C(F)(F)F)cc3)c2s1 [Compound 92, N-[(2S)-1-hydroxybutan-2-yl]-4-methyl-7-[4-(trifluoromethyl)phenyl]-9-thia-4,5,7-triazatricyclo[6.3.0.0^2,6]undeca-1(8),2,5,10-tetraene-10-carboxamide]",100 to 1000,> 3000,–,> 30000
"Cn1cc2c3cc(C(=O)N[C@@H](CO)c4ccccn4)sc3n(-c3ccc(OC(F)(F)F)cn3)c2n1 [Compound 125, N-[(1R)-2-hydroxy-1-(pyridin-2-yl)ethyl]-4-methyl-7-[5-(trifluoromethoxy)pyridin-2-yl]-9-thia-4,5,7-triazatricyclo[6.3.0.0^2,6]undeca-1(8),2,5,10-tetraene-10-carboxamide]",1 to 100,> 30000,100 to 10000,–
"C[C@@H](O)CNC(=O)c1cc2c3cn(C)nc3n(-c3ccc(C(F)(F)F)cc3)c2s1 [Compound 44, N-[(2R)-2-hydroxypropyl]-4-methyl-7-[4-(trifluoromethyl)phenyl]-9-thia-4,5,7-triazatricyclo[6.3.0.0^2,6]undeca-1(8),2,5,10-tetraene-10-carboxamide]",1 to 100,> 3000,–,> 9500
"CNC(=O)c1cc2c3cn(C)nc3n(-c3ccc(OC(F)(F)F)cn3)c2s1 [Compound 124, N,4-dimethyl-7-[5-(trifluoromethoxy)pyridin-2-yl]-9-thia-4,5,7-triazatricyclo[6.3.0.0^2,6]undeca-1(8),2,5,10-tetraene-10-carboxamide]",1 to 100,> 3000,100 to 10000,–
"Cn1cc2c3cc(C(=O)N4CC[C@H](O)C4)sc3n(-c3ccc(C(F)F)cc3)c2n1 [Compound 105, (3S)-1-{7-[4-(difluoromethyl)phenyl]-4-methyl-9-thia-4,5,7-triazatricyclo[6.3.0.0^2,6]undeca-1(8),2,5,10-tetraene-10-carbonyl}pyrrolidin-3-ol]",100 to 1000,> 30000,10 to 100,–
"Cn1cnc2c1c1sc(C(=O)O)cc1n2-c1ccc(C(F)(F)F)cc1 [Compound 20, 3-methyl-7-[4-(trifluoromethyl)phenyl]-11-thia-3,5,7-triazatricyclo[6.3.0.0^2,6]undeca-1(8),2(6),4,9-tetraene-10-carboxylic acid]",100 to 1000,> 30000,10 to 100,–
"Cn1cc2c3cc(C(=O)O)sc3n(-c3ccc(C(F)F)cc3)c2n1 [Compound 99, 7-[4-(difluoromethyl)phenyl]-4-methyl-9-thia-4,5,7-triazatricyclo[6.3.0.0^2,6]undeca-1(8),2,5,10-tetraene-10-carboxylic acid]",100 to 1000,> 30000,100 to 10000,–
"Cn1ccc([C@@H](CO)NC(=O)c2cc3c4cn(C)nc4n(-c4ccc(C(F)(F)F)cc4)c3s2)n1 (single isomer, unassigned) [Compound 130]",1 to 100,> 30000,10 to 100,–
"C[C@H](O)CNC(=O)c1cc2c3cn(C)nc3n(-c3ccc(C(F)(F)F)cc3)c2s1 [Compound 43, N-[(2S)-2-hydroxypropyl]-4-methyl-7-[4-(trifluoromethyl)phenyl]-9-thia-4,5,7-triazatricyclo[6.3.0.0^2,6]undeca-1(8),2,5,10-tetraene-10-carboxamide]",1 to 100,> 3000,–,> 9500
"Cn1cc2c3cc(C(=O)O)sc3n([C@H]3CC[C@H](C(F)(F)F)CC3)c2n1 [Compound 52, 4-methyl-7-[(1r,4r)-4-(trifluoromethyl)cyclohexyl]-9-thia-4,5,7-triazatricyclo[6.3.0.0^2,6]undeca-1(8),2,5,10-tetraene-10-carboxylic acid]",1 to 100,> 30000,10 to 100,–
"Cn1cc2c3sc(C(=O)O)cc3n(-c3ccc(OC(F)F)cc3)c2n1 [Compound 10, 7-[4-(difluoromethoxy)phenyl]-10-methyl-3-thia-7,9,10-triazatricyclo[6.3.0.0^2,6]undeca-1(11),2(6),4,8-tetraene-4-carboxylic acid]",100 to 1000,> 30000,10 to 100,–
"Cn1cc2c3cc(C(=O)NCCN4CCOCC4)sc3n(-c3ccc(C(F)(F)F)cc3)c2n1 [Compound 65, 4-methyl-N-[2-(morpholin-4-yl)ethyl]-7-[4-(trifluoromethyl)phenyl]-9-thia-4,5,7-triazatricyclo[6.3.0.0^2,6]undeca-1(8),2,5,10-tetraene-10-carboxamide]",100 to 1000,> 3000,–,> 300
"CNC(=O)c1cc2c3nn(C)nc3n(-c3ccc(C(F)(F)F)cc3)c2s1 [Compound 102, N,4-dimethyl-7-[4-(trifluoromethyl)phenyl]-9-thia-3,4,5,7-tetraazatricyclo[6.3.0.0^2,6]undeca-1(8),2,5,10-tetraene-10-carboxamide]",1 to 100,> 30000,10 to 100,–
"Cn1cc2c3cc(C(=O)N=[S@](C)(=O)CCCO)sc3n(-c3ccc(C(F)(F)F)cc3)c2n1 (single isomer, unassigned) [Compound 62]",100 to 1000,> 3000,–,> 300
"Cn1cc2c3cc(C(=O)N[C@@H](CO)c4ccccn4)sc3n(-c3ccc(OC(F)F)cn3)c2n1 [Compound 122, 7-[5-(difluoromethoxy)pyridin-2-yl]-N-[(1R)-2-hydroxy-1-(pyridin-2-yl)ethyl]-4-methyl-9-thia-4,5,7-triazatricyclo[6.3.0.0^2,6]undeca-1(8),2,5,10-tetraene-10-carboxamide]",1 to 100,> 30000,100 to 10000,–
"Cn1nc2c3sc(C(=O)O)cc3n(-c3ccc(OC(F)(F)F)cc3)c2n1 [Compound 27, 4-methyl-7-[4-(trifluoromethoxy)phenyl]-11-thia-3,4,5,7-tetraazatricyclo[6.3.0.0^2,6]undeca-1(8),2,5,9-tetraene-10-carboxylic acid]",100 to 1000,> 30000,10 to 100,–
"Cn1cc2c3cc(C(=O)N[C@@H](CCO)c4cncs4)sc3n(-c3ccc(C(F)(F)F)cc3)c2n1 (single isomer, unassigned) [Compound 41]",100 to 1000,> 3000,100 to 10000,–
